# Test results from patent US9073892B2, “Indazolyl triazol derivatives” (Merck Serono S.A., priority 2010, dated 2015).
# System: T1, IRAK1/4 human
# T1 construct: fused on or other part: His tag and TEV cleavage site at the N-terminus
# Assay: IRAK1/4 phosphorylation IC50 (enzymatic assay, table 2)
# Type: biochemical
# Settings: human IRAK1/4 phosphorylation
# In short: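 His-TEV-tagged human IRAK-1 or IRAK-4 (IRAK-4 with STK1-biotin peptide) was incubated in 384-well plates with ATP and compounds in DMSO from 20 µM to 1 nM, with 2% DMSO controls. The buffer was Hepes pH7.0 50 mM with MgCl2, DTT, EGTA and BSA, and reactions ran 2 or 3 hours. Inhibition was reported as IC50.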
row,Compound,IC50 [nM]
1,O=C(c1ccc(-n2cc(-c3n[nH]c4cc(Br)ccc34)nn2)cc1)N1CCOCC1 [Example 208],100 to 1000
2,Cn1cc(-c2ccc3c(-c4cn(-c5ccc(C(=O)N6CCOCC6)cc5)nn4)n[nH]c3c2)cn1 [Example 209],1000 to 5000
3,CN1CCC(c2ccc(-n3cc(-c4n[nH]c5ccccc45)nn3)cc2)CC1 [Example 211],100 to 1000
4,COC/C=C/c1ccc2c(-c3cn(-c4ccc(C(=O)N5CCOCC5)cc4)nn3)n[nH]c2c1 [Example 212],100 to 1000
5,COCC#Cc1ccc2c(-c3cn(-c4ccc(C(=O)N5CCOCC5)cc4)nn3)n[nH]c2c1 [Example 213],1000 to 5000
6,O=C(c1ccc(-n2cc(-c3n[nH]c4cc(-c5ccncc5)ccc34)nn2)cc1)N1CCOCC1 [Example 214],100 to 1000
7,O=C(c1ccc(-n2cc(-c3n[nH]c4cc(C#CCCO)ccc34)nn2)cc1)N1CCOCC1 [Example 215],1000 to 5000
8,O=C(c1ccc(-n2cc(-c3n[nH]c4cc(CCCCO)ccc34)nn2)cc1)N1CCOCC1 [Example 216],100 to 1000
9,O=C(c1ccc(-n2cc(-c3n[nH]c4cc(C5=CCOCC5)ccc34)nn2)cc1)N1CCOCC1 [Example 217],100 to 1000
10,CCC(O)CCc1ccc2c(-c3cn(-c4ccc(C(=O)N5CCOCC5)cc4)nn3)n[nH]c2c1 (stereo not drawn) [Example 218],1000 to 5000
11,NCC#Cc1ccc2c(-c3cn(-c4ccc(C(=O)N5CCOCC5)cc4)nn3)n[nH]c2c1 [Example 219],1000 to 5000
12,COCCCc1ccc2c(-c3cn(-c4ccc(C(=O)N5CCOCC5)cc4)nn3)n[nH]c2c1 [Example 220],100 to 1000
13,C#Cc1ccc2c(-c3cn(-c4ccc(C(=O)N5CCOCC5)cc4)nn3)n[nH]c2c1 [Example 221],100 to 1000
14,O=C(c1ccc(-n2cc(-c3n[nH]c4ccc(NC5CCCOC5)cc34)nn2)cc1)N1CCOCC1 (stereo not drawn) [Example 222],100 to 1000
15,CN1CCC(Nc2ccc3[nH]nc(-c4cn(-c5ccc(C(=O)N6CCOCC6)cc5)nn4)c3c2)CC1 [Example 223],< 100
16,CN1C2CCC1CC(n1cc(-n3cc(-c4n[nH]c5ccc(F)cc45)nn3)cn1)C2 (stereo not drawn) [Example 226],100 to 1000
17,CN1C2CCC1CC(n1cc(-n3cc(-c4n[nH]c5ccc(Cl)cc45)nn3)cn1)C2 (stereo not drawn) [Example 227],100 to 1000
18,O=C(NC1CCOCC1)c1ccc2[nH]nc(-c3cn(-c4ccc(CN5CCOCC5)cc4)nn3)c2c1 [Example 228],100 to 1000
19,CN1C2CCC1CC(n1cc(-n3cc(-c4n[nH]c5cc(F)ccc45)nn3)cn1)C2 (stereo not drawn) [Example 229],< 100
20,O=C(NCc1cccc(O)c1)c1ccc2[nH]nc(-c3cn(-c4ccc(CN5CCOCC5)cc4)nn3)c2c1 [Example 230],< 100
21,O=C(NC1CCC(O)CC1)c1ccc2[nH]nc(-c3cn(-c4ccc(CN5CCOCC5)cc4)nn3)c2c1 (stereo not drawn) [Example 231],100 to 1000
22,CC(C)c1ccc(-n2cc(-c3n[nH]c4ccccc34)nn2)cc1 [Example 232],1000 to 5000
23,NC(=O)COc1ccc2c(-c3cn(-c4ccc(C(=O)N5CCOCC5)cc4)nn3)n[nH]c2c1 [Example 233],100 to 1000
24,COCCOc1ccc2c(-c3cn(-c4ccc(C(=O)N5CCOCC5)cc4)nn3)n[nH]c2c1 [Example 234],1000 to 5000
25,O=C(c1ccc(-n2cc(-c3n[nH]c4cc(O)ccc34)nn2)cc1)N1CCOCC1 [Example 235],100 to 1000

row,Compound,IC50 [nM]
1,O=C(c1ccc2[nH]nc(-c3cn(-c4ccc(CN5CCOCC5)cc4)nn3)c2c1)N1CCC(c2ccncc2)CC1 [Example 236],100 to 1000
2,CN(C)C1CCN(C(=O)c2ccc3[nH]nc(-c4cn(-c5ccc(CN6CCOCC6)cc5)nn4)c3c2)CC1 [Example 237],100 to 1000
3,c1ccc2c(-c3cn(-c4ccc(C5CCN(CC6CCCO6)CC5)cc4)nn3)n[nH]c2c1 (stereo not drawn) [Example 239],100 to 1000
4,O=C(c1ccc(-n2cc(-c3n[nH]c4cc(/C=C/CO)ccc34)nn2)cc1)N1CCOCC1 [Example 240],< 100
5,CN(C)S(=O)(=O)c1ccc(-n2cc(-c3n[nH]c4ccccc34)nn2)cc1 [Example 241],100 to 1000
6,O=C(c1ccc(-n2cc(-c3n[nH]c4ccc(N5CCCC(F)(F)C5)cc34)nn2)cc1)N1CCOCC1 [Example 242],100 to 1000
7,O=S(=O)(c1ccc(-n2cc(-c3n[nH]c4ccccc34)nn2)cc1)N1CCOCC1 [Example 243],100 to 1000
8,O=C(c1ccc(-n2cc(-c3n[nH]c4cc(NCCO)ccc34)nn2)cc1)N1CCOCC1 [Example 244],100 to 1000
9,CC(CO)Nc1ccc2c(-c3cn(-c4ccc(C(=O)N5CCOCC5)cc4)nn3)n[nH]c2c1 (stereo not drawn) [Example 245],100 to 1000
10,c1ccc2c(-c3cn(-c4ccc(N5CCNCC5)cc4)nn3)n[nH]c2c1 [Example 246],100 to 1000
11,c1ccc2c(-c3cn(-c4ccc(CN5CCCCC5)cc4)nn3)n[nH]c2c1 [Example 247],100 to 1000
12,O=C(c1ccc(-n2cc(-c3n[nH]c4ccc(NCC5CCOCC5)cc34)nn2)cc1)N1CCOCC1 [Example 248],100 to 1000
13,c1ccc2c(-c3cn(-c4ccc(C5CC6CCC(C5)N6C5COC5)cc4)nn3)n[nH]c2c1 (stereo not drawn) [Example 249],100 to 1000
14,O=C(c1ccc(-n2cc(-c3n[nH]c4ccc(N5CCN6CCCC6C5)cc34)nn2)cc1)N1CCOCC1 (stereo not drawn) [Example 250],100 to 1000
15,c1ccc2c(-c3cn(-c4ccc(C5CCCNC5)cc4)nn3)n[nH]c2c1 (stereo not drawn) [Example 252],< 100
16,CN1[C@@H]2CC[C@H]1C[C@@H](c1ccc(-n3cc(-c4n[nH]c5cc(F)ccc45)nn3)cc1)C2 [Example 253],< 100
17,O=C(c1ccc(-n2cc(-c3n[nH]c4ccc(N5CCCC(O)C5)cc34)nn2)cc1)N1CCOCC1 (stereo not drawn) [Example 254],100 to 1000
18,c1ccc2c(-c3cn(-c4ccc([C@@H]5C[C@H]6CC[C@@H](C5)N6)cc4)nn3)n[nH]c2c1 [Example 255],< 100
19,c1ccc2c(-c3cn(-c4ccc([C@H]5C[C@H]6CC[C@@H](C5)N6)cc4)nn3)n[nH]c2c1 [Example 256],< 100
20,O=C(c1ccc(-n2cc(-c3n[nH]c4ccc(NC5CCCNC5)cc34)nn2)cc1)N1CCOCC1 (stereo not drawn) [Example 257],< 100
21,Nc1ccc(-c2ccc(-n3cc(-c4n[nH]c5ccccc45)nn3)cc2)cn1 [Example 258],100 to 1000
22,O=S1(=O)CCN(Cc2ccc(-n3cc(-c4n[nH]c5ccccc45)nn3)cc2)CC1 [Example 259],100 to 1000
23,Cc1cc(-c2ccc(-n3cc(-c4n[nH]c5ccccc45)nn3)cc2)ccn1 [Example 260],100 to 1000
24,Cn1cc(-c2ccc(-n3cc(-c4n[nH]c5ccccc45)nn3)cc2)cn1 [Example 261],100 to 1000
25,c1ccc2c(-c3cn(-c4ccc(-c5cnn(CCN6CCOCC6)c5)cc4)nn3)n[nH]c2c1 [Example 262],100 to 1000

row,Compound,IC50 [nM]
1,FC(F)(F)c1cc(-n2cc(-c3n[nH]c4ccccc34)nn2)ccc1C1CCNCC1 [Example 263],100 to 1000
2,O=C(c1ccc(-n2cc(-c3n[nH]c4ccc(N5CCOC(CCO)C5)cc34)nn2)cc1)N1CCOCC1 (stereo not drawn) [Example 264],100 to 1000
3,Cc1ccc2c(-c3cn(-c4ccc(C5CCNCC5)cc4)nn3)n[nH]c2c1 [Example 265],< 100
4,Fc1ccc2c(-c3cn(-c4ccc(C5CCNCC5)cc4)nn3)n[nH]c2c1 [Example 266],< 100
5,CN1CCC(c2ccc(-n3cc(-c4n[nH]c5ccccc45)nn3)cc2C(F)(F)F)CC1 [Example 267],100 to 1000
6,COc1cc(-n2cc(-c3n[nH]c4ccccc34)nn2)ccc1C1CCNCC1 [Example 268],< 100
7,c1ccc2c(-c3cn(-c4ccc(C5CCCNCC5)cc4)nn3)n[nH]c2c1 (stereo not drawn) [Example 269],< 100
8,Cc1ccc2c(-c3cn(-c4ccc(C5CCN(CCC(F)(F)F)CC5)cc4)nn3)n[nH]c2c1 [Example 270],1000 to 5000
9,OC(CN1CCC(c2ccc(-n3cc(-c4n[nH]c5cc(F)ccc45)nn3)cc2)CC1)C(F)(F)F (stereo not drawn) [Example 271],100 to 1000
10,CN1[C@@H]2CCC[C@H]1C[C@H](c1ccc(-n3cc(-c4n[nH]c5cc(F)ccc45)nn3)cc1)C2 [Example 272],< 100
11,CN1[C@@H]2CCC[C@H]1C[C@H](c1ccc(-n3cc(-c4n[nH]c5ccccc45)nn3)cc1)C2 [Example 273],< 100
12,Cc1ccc2c(-c3cn(-c4ccc([C@@H]5C[C@H]6CCC[C@@H](C5)N6C)cc4)nn3)n[nH]c2c1 [Example 274],< 100
13,CC1(C)CNCCC1c1ccc(-n2cc(-c3n[nH]c4cc(F)ccc34)nn2)cc1 (stereo not drawn) [Example 275],< 100
14,O=C1C[C@@H](OCc2ccc3[nH]nc(-c4cn(-c5ccc(C(=O)N6CCOCC6)cc5)nn4)c3c2)CO1 [Example 276],100 to 1000
15,CC1(C)CNCCC1c1ccc(-n2cc(-c3n[nH]c4ccccc34)nn2)cc1 (stereo not drawn) [Example 277],< 100
16,CN1C2CCC1CC(n1cc(-n3cc(-c4n[nH]c5ccc(-c6cnn(C)c6)cc45)nn3)cn1)C2 (stereo not drawn) [Example 278],< 100
17,Cc1ccc2c(-c3cn(-c4ccc(CN5CCOC(C)(C)C5)cc4)nn3)n[nH]c2c1 [Example 279],100 to 1000
18,OC(CN1[C@@H]2CC[C@H]1C[C@@H](c1ccc(-n3cc(-c4n[nH]c5ccccc45)nn3)cc1)C2)C(F)(F)F (stereo partly drawn) [Example 280],100 to 1000
19,OC(CN1[C@@H]2CC[C@H]1C[C@H](c1ccc(-n3cc(-c4n[nH]c5ccccc45)nn3)cc1)C2)C(F)(F)F (stereo partly drawn) [Example 281],100 to 1000
20,Fc1ccc2c(-c3cn(-c4ccc(CN5CC6CCC(C5)O6)cc4)nn3)n[nH]c2c1 [Example 282],1000 to 5000
21,CC1(C)CN(Cc2ccc(-n3cc(-c4n[nH]c5cc(F)ccc45)nn3)cc2)CCO1 [Example 283],1000 to 5000
22,c1ccc2c(-c3cn(-c4ccc(CN5CC6CCC(C5)O6)cc4)nn3)n[nH]c2c1 [Example 284],1000 to 5000
23,Fc1ccc2c(-c3cn(-c4ccc(CN5CCCCC56COC6)cc4)nn3)n[nH]c2c1 [Example 285],100 to 1000
24,Cc1ccc2c(-c3cn(-c4ccc(CN5CCCCC56COC6)cc4)nn3)n[nH]c2c1 [Example 287],100 to 1000
25,Cc1nn(C)cc1-c1ccc(-n2cc(-c3n[nH]c4ccccc34)nn2)cc1 [Example 289],100 to 1000
